{"source": "patent US4693992A", "about": "“Bacitracin-metal-polyether antibiotic complexes” (International Minerals & Chemical Corp., priority 1985, dated 1987)", "key": {"[1]": {"test_system": "Eimeria tenella", "test": "Anticoccidial activity in chickens inoculated with Eimeria tenella oocysts (Example 11)", "type": "in vivo", "conditions": "for Incidence of Bloody Droppings / Morbidity: 4th-6th day; for Mortality: 4th-7th day", "experimental": "(§1) This example describes experimental testing of complexes of this invention for anticoccidial activity. Anticoccidial activities of test compounds were determined by administering the compounds (in feed) to chickens inoculated with active oocysts of Eimeria tenella. The test compounds, which are listed in Table 1 below, included four bacitracin-metal-polyether antibiotic complexes prepared according to the procedures described above. In addition, sodium lysocellin, regular bacitracin, sodium monensin, sodium lasolocid, and unmedicated inoculated and noninoculated controls were included for comparative purposes.\n(§2) The test animals were Hubbard White Mountain male chicken (broiler strain) that were 5 days old at the beginning of the test. Each experimental compound was administered in a chick starter diet (Table 2) at a level of 80 g/ton and 120 g/ton. At 7 days of age, chicks were individually weighed, banded, and started on their respective treatments. Each treatment was replicated three times with five birds per replicate for a total of 15 birds per group. The test period was 10 days.\nSeventy-two hours after the initiation of medication, birds were reweighed and orally inoculated with approximately 100,000 Eimeria tenella oocysts suspended in a 1 cc dose of saline. The following criteria were then evaluated over the next seven days: […]\na. morbidity (4th-6th day) b. mortality (4th-7th day) c. incidence of bloody droppings (4th-6th day)"}, "[2]": {"test_system": "Eimeria tenella", "test": "Anticoccidial activity in chickens inoculated with Eimeria tenella (Example 12)", "type": "in vivo, chicken", "conditions": "for Cecal Bleeding / Gain/Bird Days 0-3 / Gain/Bird Days 4-10: regrouped part of Table 2", "experimental": "as §1, §2\nSeventy-two hours after the initiation of medication, birds were reweighed and orally inoculated with approximately 100,000 Eimeria tenella oocysts suspended in a 1 cc dose of saline. The following criteria were then evaluated over the next seven days:\nA satisfactory challenge was obtained with Eimeria tenella."}, "[3]": {"conditions": "80 g/ton in feed, feed per gain"}, "[4]": {"conditions": "120 g/ton in feed, feed per gain"}}}
{"smiles": "CC[C@@H](C(=O)[C@@H](C)[C@@H](O)[C@H](C)CCc1ccc(C)c(O)c1C(=O)O)[C@H]1O[C@](CC)([C@H]2CC[C@](O)(CC)[C@H](C)O2)C[C@@H]1C", "note": "[Lasalocid, sodium lasalocid, reference compound]", "values": [{"measurement": "anticoccidial activity (in words)", "setting": "[1]; 80 and 120 g/ton, mild E. tenella challenge", "value": "excellent anticoccidial activity"}, {"measurement": "Incidence of Bloody Droppings", "setting": "[1]; 80 g/ton in feed", "value": "None"}, {"measurement": "Morbidity", "setting": "[1]; 80 g/ton in feed, birds affected/birds in group", "value": "0/15"}, {"measurement": "Mortality", "setting": "[1]; 80 g/ton in feed, birds dead/birds in group", "value": "0/15"}, {"measurement": "Gain, Grams Day 0-3", "setting": "[1]; 80 g/ton in feed", "value": 59.7, "unit": "Grams"}, {"measurement": "Gain, Grams Day 4-10", "setting": "[1]; 80 g/ton in feed", "value": 232.4, "unit": "Grams"}, {"measurement": "F/G Day 0-3", "setting": "[1]; [3]", "value": 1.68}, {"measurement": "F/G Day 4-10", "setting": "[1]; [3]", "value": 1.58}, {"measurement": "Incidence of Bloody Droppings", "setting": "[1]; 120 g/ton in feed", "value": "None"}, {"measurement": "Morbidity", "setting": "[1]; 120 g/ton in feed, birds affected/birds in group", "value": "1/15"}, {"measurement": "Mortality", "setting": "[1]; 120 g/ton in feed, birds dead/birds in group", "value": "0/15"}, {"measurement": "Gain, Grams Day 0-3", "setting": "[1]; 120 g/ton in feed", "value": 55.7, "unit": "Grams"}, {"measurement": "Gain, Grams Day 4-10", "setting": "[1]; 120 g/ton in feed", "value": 230.1, "unit": "Grams"}, {"measurement": "F/G Day 0-3", "setting": "[1]; [4]", "value": 1.75}, {"measurement": "F/G Day 4-10", "setting": "[1]; [4]", "value": 1.56}, {"measurement": "Cecal Bleeding", "setting": "[2]; 14 g/ton Lasalocid (Approx.)", "value": "Severe"}, {"measurement": "Gain/Bird Days 0-3", "setting": "[2]; 14 g/ton Lasalocid (Approx.)", "value": 58.7}, {"measurement": "Gain/Bird Days 4-10", "setting": "[2]; 14 g/ton Lasalocid (Approx.)", "value": 148.5}, {"measurement": "Cecal bleeding associated with E. tenella infections", "setting": "[2]; 24 (.30 of 80) gram per ton", "value": "severe"}, {"measurement": "Incidence of Bloody Droppings", "setting": "[2]; 24 g/ton in feed", "value": "Severe"}, {"measurement": "Morbidity", "setting": "[2]; 24 g/ton in feed", "value": "9/15"}, {"measurement": "Mortality", "setting": "[2]; 24 g/ton in feed", "value": "0/15"}, {"measurement": "F/G Day 0-3", "setting": "[2]; 24 g/ton in feed", "value": 1.78}, {"measurement": "Gain/Bird Grams Day 0-3", "setting": "[2]; 24 g/ton in feed", "value": 58.7, "unit": "Grams"}, {"measurement": "F/G Day 4-10", "setting": "[2]; 24 g/ton in feed", "value": 2.09}, {"measurement": "Gain/Bird Grams Day 4-10", "setting": "[2]; 24 g/ton in feed", "value": 148.5, "unit": "Grams"}, {"measurement": "Cecal Bleeding", "setting": "[2]; 36 g/ton Lasalocid (Approx.)", "value": "Moderate"}, {"measurement": "Gain/Bird Days 0-3", "setting": "[2]; 36 g/ton Lasalocid (Approx.)", "value": 61.5}, {"measurement": "Gain/Bird Days 4-10", "setting": "[2]; 36 g/ton Lasalocid (Approx.)", "value": 176.5}, {"measurement": "Incidence of Bloody Droppings", "setting": "[2]; 36 g/ton in feed", "value": "Moderate"}, {"measurement": "Morbidity", "setting": "[2]; 36 g/ton in feed", "value": "5/14"}, {"measurement": "Mortality", "setting": "[2]; 36 g/ton in feed", "value": "1/14"}, {"measurement": "F/G Day 0-3", "setting": "[2]; 36 g/ton in feed", "value": 1.74}, {"measurement": "Gain/Bird Grams Day 0-3", "setting": "[2]; 36 g/ton in feed", "value": 61.5, "unit": "Grams"}, {"measurement": "F/G Day 4-10", "setting": "[2]; 36 g/ton in feed", "value": 1.86}, {"measurement": "Gain/Bird Grams Day 4-10", "setting": "[2]; 36 g/ton in feed", "value": 176.5, "unit": "Grams"}, {"measurement": "Incidence of Bloody Droppings", "setting": "[2]; 80 g/ton in feed", "value": "None"}, {"measurement": "Morbidity", "setting": "[2]; 80 g/ton in feed", "value": "1/15"}, {"measurement": "Mortality", "setting": "[2]; 80 g/ton in feed", "value": "0/15"}, {"measurement": "F/G Day 0-3", "setting": "[2]; 80 g/ton in feed", "value": 1.71}, {"measurement": "Gain/Bird Grams Day 0-3", "setting": "[2]; 80 g/ton in feed", "value": 58.0, "unit": "Grams"}, {"measurement": "F/G Day 4-10", "setting": "[2]; 80 g/ton in feed", "value": 1.60}, {"measurement": "Gain/Bird Grams Day 4-10", "setting": "[2]; 80 g/ton in feed", "value": 219.4, "unit": "Grams"}, {"measurement": "Incidence of Bloody Droppings", "setting": "[2]; 120 g/ton in feed", "value": "None"}, {"measurement": "Morbidity", "setting": "[2]; 120 g/ton in feed", "value": "0/15"}, {"measurement": "Mortality", "setting": "[2]; 120 g/ton in feed", "value": "0/15"}, {"measurement": "F/G Day 0-3", "setting": "[2]; 120 g/ton in feed", "value": 1.76}, {"measurement": "Gain/Bird Grams Day 0-3", "setting": "[2]; 120 g/ton in feed", "value": 52.1, "unit": "Grams"}, {"measurement": "F/G Day 4-10", "setting": "[2]; 120 g/ton in feed", "value": 1.52}, {"measurement": "Gain/Bird Grams Day 4-10", "setting": "[2]; 120 g/ton in feed", "value": 225.2, "unit": "Grams"}]}
{"smiles": "CC[C@@]1([C@@H]2O[C@@H]([C@H]3O[C@@](O)(CO)[C@H](C)C[C@@H]3C)C[C@@H]2C)CC[C@H]([C@]2(C)CC[C@]3(C[C@H](O)[C@@H](C)[C@@H]([C@@H](C)[C@@H](OC)[C@H](C)C(=O)O)O3)O2)O1", "note": "[Monensin, sodium monensin, reference compound]", "values": [{"measurement": "protection against cecal bleeding", "setting": "[1]; level in feed not given", "value": "fair"}, {"measurement": "tolerance by the birds", "setting": "[1]; level in feed not given", "value": "not tolerated well"}, {"measurement": "Incidence of Bloody Droppings", "setting": "[1]; level in feed not given", "value": "Slight"}, {"measurement": "Morbidity", "setting": "[1]; level in feed not given", "value": "5/15"}, {"measurement": "Mortality", "setting": "[1]; level in feed not given", "value": "0/15"}, {"measurement": "F/G Day 0-3", "setting": "[1]; level in feed not given", "value": 1.81}, {"measurement": "Gain, Grams Day 0-3", "setting": "[1]; level in feed not given", "value": 53.2, "unit": "Grams"}, {"measurement": "F/G Day 4-10", "setting": "[1]; level in feed not given", "value": 1.64}, {"measurement": "Gain, Grams Day 4-10", "setting": "[1]; level in feed not given", "value": 202.5, "unit": "Grams"}]}
